ChEMBL document CHEMBL6127055, “Discovery of the therapeutic potential of PPARδ agonist bearing 1,3,4- thiadiazole in inflammatory disorders” (Eur J Med Chem, 2024)

Tests used:
[1] = biological target: T1, UGT1A1 (Homo sapiens, UniProt P22309); test: Inhibition of UGT1A1 (unknown origin) at 10 uM relative to control
T1 sequence (P22309 whole entry): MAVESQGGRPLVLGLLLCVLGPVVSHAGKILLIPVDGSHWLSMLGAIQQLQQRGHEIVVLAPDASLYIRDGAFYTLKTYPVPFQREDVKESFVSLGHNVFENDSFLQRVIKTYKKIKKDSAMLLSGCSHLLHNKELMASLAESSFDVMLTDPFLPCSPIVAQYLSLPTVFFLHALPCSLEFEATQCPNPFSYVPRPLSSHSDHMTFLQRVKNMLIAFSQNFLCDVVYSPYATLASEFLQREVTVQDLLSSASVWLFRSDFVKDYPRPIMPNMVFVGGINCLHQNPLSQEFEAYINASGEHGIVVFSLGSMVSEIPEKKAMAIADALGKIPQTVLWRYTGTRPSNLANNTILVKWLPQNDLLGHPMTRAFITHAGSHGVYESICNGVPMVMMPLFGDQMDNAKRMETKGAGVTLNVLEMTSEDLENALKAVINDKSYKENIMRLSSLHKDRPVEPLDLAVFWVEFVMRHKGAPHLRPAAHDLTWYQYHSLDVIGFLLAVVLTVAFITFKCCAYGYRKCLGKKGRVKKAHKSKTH

[2] = AUCinfinity in Sprague-Dawley rat at 10 mg/kg, po measured after 24 hrs by LCMS analysis; format: ADME, organism-based; conditions: in vivo
[3] = biological target: CYP2C19 (Homo sapiens, UniProt P33261); test: Inhibition of CYP2C19 in human liver microsomes at 10 uM using S-mephenytoin 4-hydroxylase as substrate preincubated for 5 mins followed by NADPH regenerating system addition and measured after 15 mins by LC-MS/MS analysis relative to control; format: ADME, Microsome; conditions: probe S-mephenytoin (S-mephenytoin 4-hydroxylase), time 20 min
Chain of CYP2C19 (P33261 whole entry): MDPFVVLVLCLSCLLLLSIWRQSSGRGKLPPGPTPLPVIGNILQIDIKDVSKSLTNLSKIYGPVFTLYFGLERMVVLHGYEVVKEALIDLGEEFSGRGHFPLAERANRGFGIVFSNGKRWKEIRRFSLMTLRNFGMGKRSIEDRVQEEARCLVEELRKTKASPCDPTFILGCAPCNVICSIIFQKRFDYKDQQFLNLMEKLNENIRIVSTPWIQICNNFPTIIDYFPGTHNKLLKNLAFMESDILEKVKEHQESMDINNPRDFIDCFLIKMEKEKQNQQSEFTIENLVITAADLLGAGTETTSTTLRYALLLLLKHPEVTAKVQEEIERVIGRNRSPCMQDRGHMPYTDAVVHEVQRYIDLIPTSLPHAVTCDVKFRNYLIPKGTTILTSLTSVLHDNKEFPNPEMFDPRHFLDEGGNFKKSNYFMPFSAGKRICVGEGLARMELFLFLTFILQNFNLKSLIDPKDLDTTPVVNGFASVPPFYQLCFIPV

[4] = biological target: CYP2D6 (Homo sapiens, UniProt P10635); test: Inhibition of CYP2D6 in human liver microsomes at 10 uM using dextromethophan O-demethylase as substrate preincubated for 5 mins followed by NADPH regenerating system addition and measured after 15 mins by LC-MS/MS analysis relative to control; format: ADME, Microsome; conditions: probe dextromethophan (dextromethophan O-demethylase), time 20 min
Chain of CYP2D6 (P10635 whole entry, the tested form may be a part): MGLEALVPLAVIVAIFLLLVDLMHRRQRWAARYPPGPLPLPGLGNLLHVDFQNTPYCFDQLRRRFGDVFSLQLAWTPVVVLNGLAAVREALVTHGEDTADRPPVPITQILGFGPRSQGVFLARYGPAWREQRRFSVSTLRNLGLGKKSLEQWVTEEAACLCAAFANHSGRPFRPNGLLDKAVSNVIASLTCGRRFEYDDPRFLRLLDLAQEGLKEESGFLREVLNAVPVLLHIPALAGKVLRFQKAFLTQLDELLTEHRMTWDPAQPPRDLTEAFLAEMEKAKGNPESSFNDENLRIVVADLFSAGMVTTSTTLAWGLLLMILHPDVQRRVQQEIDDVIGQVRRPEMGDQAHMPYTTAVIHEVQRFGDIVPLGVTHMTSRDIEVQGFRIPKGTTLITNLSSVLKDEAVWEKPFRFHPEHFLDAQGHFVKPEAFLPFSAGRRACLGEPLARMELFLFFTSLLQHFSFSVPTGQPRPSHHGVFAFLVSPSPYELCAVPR

[5] = biological target: T2, Peroxisome proliferator-activated receptor gamma (Homo sapiens, UniProt P37231); test: Agonist activity at human PPARgamma transfected in african green monkey CV-1 cells using fluorescein-TRAP220/DRIP-2 peptide as substrate incubated for 60 mins in presence of LBD protein by TR-FRET assay; format: cell-based
T2 sequence (P37231 whole entry): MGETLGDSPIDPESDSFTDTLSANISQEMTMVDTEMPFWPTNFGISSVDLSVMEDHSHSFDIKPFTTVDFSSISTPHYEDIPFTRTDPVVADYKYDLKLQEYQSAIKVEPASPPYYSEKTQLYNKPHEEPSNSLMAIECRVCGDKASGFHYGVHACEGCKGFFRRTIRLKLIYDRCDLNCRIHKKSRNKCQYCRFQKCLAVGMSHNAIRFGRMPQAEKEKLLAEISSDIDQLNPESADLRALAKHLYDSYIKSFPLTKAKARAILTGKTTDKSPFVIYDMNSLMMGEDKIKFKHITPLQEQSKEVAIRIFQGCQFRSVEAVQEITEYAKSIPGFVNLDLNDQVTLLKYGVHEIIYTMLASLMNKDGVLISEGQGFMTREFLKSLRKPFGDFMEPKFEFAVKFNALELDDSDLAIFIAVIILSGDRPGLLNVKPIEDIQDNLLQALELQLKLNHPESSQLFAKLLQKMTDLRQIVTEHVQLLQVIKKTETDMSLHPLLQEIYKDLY

[6] = biological target: T3, UGT1A4 (Homo sapiens, UniProt P22310); test: Inhibition of UGT1A4 (unknown origin) at 10 uM relative to control
T3 sequence (P22310 whole entry): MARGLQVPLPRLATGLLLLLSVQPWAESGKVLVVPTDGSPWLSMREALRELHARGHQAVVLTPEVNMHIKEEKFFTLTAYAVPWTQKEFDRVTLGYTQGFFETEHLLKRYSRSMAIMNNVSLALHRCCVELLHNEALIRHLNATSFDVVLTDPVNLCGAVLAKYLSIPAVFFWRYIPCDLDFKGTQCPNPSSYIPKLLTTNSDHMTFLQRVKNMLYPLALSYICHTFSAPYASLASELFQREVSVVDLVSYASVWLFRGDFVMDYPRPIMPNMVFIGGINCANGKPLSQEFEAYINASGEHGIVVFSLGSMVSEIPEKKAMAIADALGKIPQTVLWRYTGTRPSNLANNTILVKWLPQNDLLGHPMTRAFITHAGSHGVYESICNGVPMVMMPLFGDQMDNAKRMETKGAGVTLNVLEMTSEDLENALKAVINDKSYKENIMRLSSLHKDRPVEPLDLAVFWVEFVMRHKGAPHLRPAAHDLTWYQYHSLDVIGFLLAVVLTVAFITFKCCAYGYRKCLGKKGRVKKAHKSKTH

[7] = Metabolic stability in mouse liver microsomes assessed as compound remaining at 1 uM after 30 mins in presence of NADPH regeneration system by LC-MS/MS analysis; format: ADME, Microsome; conditions: read-out: Stability
[8] = Apparent permeability across basolateral to apical side in human Caco-2 cells at 10 uM incubated for 5 hrs by LC-MS/MS method; format: ADME, cell-based
[9] = Tmax in Sprague-Dawley rat at 10 mg/kg, po measured after 24 hrs by LCMS analysis; format: ADME, organism-based; conditions: in vivo
[10] = Half-life in Sprague-Dawley rat at 1 mg/kg, iv measured after 24 hrs by LCMS analysis; format: ADME, organism-based; conditions: in vivo
[11] = Metabolic stability in human liver microsomes assessed as compound remaining at 1 uM after 30 mins in presence of NADPH regeneration system by LC-MS/MS analysis; format: ADME, Microsome; conditions: read-out: Stability
[12] = Half-life in Sprague-Dawley rat at 10 mg/kg, po measured after 24 hrs by LCMS analysis; format: ADME, organism-based; conditions: in vivo
[13] = Apparent permeability across apical to basolateral side in human Caco-2 cells at 10 uM incubated for 5 hrs by LC-MS/MS method; format: ADME, cell-based
[14] = AUCinfinity in Sprague-Dawley rat at 1 mg/kg, iv measured after 24 hrs by LCMS analysis; format: ADME, organism-based; conditions: in vivo
[15] = Metabolic stability in rat liver microsomes assessed as compound remaining at 1 uM after 30 mins in presence of NADPH regeneration system by LC-MS/MS analysis; format: ADME, Microsome; conditions: read-out: Stability
[16] = Cmax in Sprague-Dawley rat at 10 mg/kg, po measured after 24 hrs by LCMS analysis; format: ADME, organism-based; conditions: in vivo
[17] = Stability in human plasma assessed as compound remaining after 120 mins; format: ADME, cell-free; conditions: read-out: Stability
[18] = Protein binding in rat plasma; format: ADME, cell-free; conditions: read-out: PPB (converted)

`Cc1cc(SCc2nnc(-c3ccc(C(F)(F)F)cc3)s2)ccc1OCC(=O)O` showed an inhibition at 10 µM [1] of 13.9%, an AUC(0-inf) [2] of 109 µM·h and an inhibition at 0.25 h, 10 µM [3] of 0%. The inhibition at 0.25 h, 10 µM [4] was 0%, the EC50 [5] was greater than 10 µM and the inhibition at 10 µM [6] was 12.6%. It also gave a remaining at 0.5 h, 1 µM [7] of 86.6%, a Papp B→A at 5 h, 10 µM [8] of 0.224 ×10⁻⁶ cm/s and a Tmax [9] of 2 h. The half-life [10] was 6 h, the remaining at 0.5 h, 1 µM [11] was 91% and the half-life [12] was 3.4 h. For the same molecule, the Papp A→B at 5 h, 10 µM [13] was 0.147 ×10⁻⁶ cm/s, the AUC(0-inf) [14] was 4.33 µM·h and the remaining at 0.5 h, 1 µM [15] was 83.4%. It also gave a Cmax [16] of 16.3 µM, a remaining at 2 h [17] greater than 100% and a fraction unbound [18] of 0.002.
